# Test system: recombinant NL4-3 virus (Renilla luciferase in nef, Gag P373S)
# Assay: HIV cell culture assay (luciferase reporter virus in MT-2 cells)
# Assay type: cell-based
# Conditions: NL43
# Protocol: HIV cell culture assay—MT-2 cells and 293T cells were obtained from the NIH AIDS Research and Reference Reagent Program. MT-2 cells were propagated in RPMI 1640 media supplemented with 10% heat inactivated fetal bovine serum, […]. The 293T cells were propagated in DMEM media supplemented with 10% heat inactivated fetal bovine serum (FBS), 100 units/ml penicillin G and 100 μg/ml streptomycin. The proviral DNA clone of NL4-3 was obtained from the NIH AIDS Research and Reference Reagent Program. A recombinant NL4-3 virus, in which a section of the nef gene from NL4-3 was replaced with the Renilla luciferase gene, was used as a reference virus. In addition, residue Gag P373 was converted to P373S. Briefly, the recombinant virus was prepared by transfection of the altered proviral clone of NL4-3. Transfections were performed in 293T cells using LipofectAMINE PLUS from Invitrogen (Carlsbad, Calif.), according to manufacturer's instruction. The virus was titered in MT-2 cells using luciferase enzyme activity as a marker. Luciferase was quantitated using the Dual Luciferase kit from Promega (Madison, Wis.), with modifications to the manufacturer's protocol. The diluted Passive Lysis solution was pre-mixed with the re-suspended Luciferase Assay Reagent and the re-suspended Stop & Glo Substrate (2:1:1 ratio). Fifty (50) μL of the mixture was added to each aspirated well on assay plates and luciferase activity was measured immediately on a Wallac TriLux (Perkin-Elmer). Antiviral activities of inhibitors toward the recombinant virus were quantified by measuring luciferase activity in cells infected for 4-5 days with NLRluc recombinants in the presence serial dilutions of the inhibitor. Table 1 is the key for the data in Table 2.
row,SMILES,EC50
1,"C=C(C)[C@@H]1CC[C@]2(CO)CC[C@]3(C)[C@H](CC[C@@H]4[C@@]5(C)CC=C(c6ccc(C(=O)O)cc6)C(C)(C)[C@@H]5CC[C@]43C)[C@@H]12 [Example 5b, 4-((1R,3aS,5aR,5bR,7aR,11aS,11bR,13bR)-3a-(hydroxymethyl)-5a,5b,8,8,11a-pentamethyl-1-(prop-1-en-2-yl)-2,3,3a,4,5,5a,5b,6,7,7a,8,11,11a,11b,12,13,13a,13b-octadecahydro-1H-cyclopenta[a]chrysen-9-yl)benzoic acid]",< 1000 nM
2,"C=C(C)[C@@H]1CC[C@]2(C(=O)O)CC[C@]3(C)[C@H](CC[C@@H]4[C@@]5(C)CC=C(c6ccc(S(C)(=O)=O)cc6)C(C)(C)[C@@H]5CC[C@]43C)[C@@H]12 [Example 4j, (1R,3aS,5aR,5bR,7aR,11aS,11bR,13aR,13bR)-5a,5b,8,8,11a-pentamethyl-9-(4-(methylsulfonyl)phenyl)-1-(prop-1-en-2-yl)-2,3,3a,4,5,5a,5b,6,7,7a,8,11,11a,11b,12,13,13a,13b-octadecahydro-1H-cyclopenta[a]chrysene-3a-carboxylic acid]",> 1000 nM
3,"C=C(C)[C@@H]1CC[C@]2(C(=O)O)CC[C@]3(C)[C@H](CC[C@@H]4[C@@]5(C)CC=C(c6cccc(NS(C)(=O)=O)c6)C(C)(C)[C@@H]5CC[C@]43C)[C@@H]12 [Example 4g, (1R,3aS,5aR,5bR,7aR,11aS,11bR,13aR,13bR)-5a,5b,8,8,11a-pentamethyl-9-(3-(methylsulfonamido)phenyl)-1-(prop-1-en-2-yl)-2,3,3a,4,5,5a,5b,6,7,7a,8,11,11a,11b,12,13,13a,13b-octadecahydro-1H-cyclopenta[a]chrysene-3a-carboxylic acid]",> 1000 nM
4,"C=C(C)[C@@H]1CC[C@]2(C(=O)O)CC[C@]3(C)[C@H](CC[C@@H]4[C@@]5(C)CC=C(c6ccc(C(=O)O)c(Cl)c6)C(C)(C)[C@@H]5CC[C@]43C)[C@@H]12 [Example 4o, (1R,3aS,5aR,5bR,7aR,11aS,11bR,13aR,13bR)-9-(4-carboxy-3-chlorophenyl)-5a,5b,8,8,11a-pentamethyl-1-(prop-1-en-2-yl)-2,3,3a,4,5,5a,5b,6,7,7a,8,11,11a,11b,12,13,13a,13b-octadecahydro-1H-cyclopenta[a]chrysene-3a-carboxylic acid]",< 1000 nM
5,"C=C(C)[C@@H]1CC[C@]2(C(=O)O)CC[C@]3(C)[C@H](CC[C@@H]4[C@@]5(C)CC=C(c6ccc(NC(=O)CCC(=O)O)cc6)C(C)(C)[C@@H]5CC[C@]43C)[C@@H]12 [Example 4b, (1R,3aS,5aR,5bR,7aR,11aS,11bR,13aR,13bR)-9-(4-(3-carboxypropanamido)phenyl)-5a,5b,8,8,11a-pentamethyl-1-(prop-1-en-2-yl)-2,3,3a,4,5,5a,5b,6,7,7a,8,11,11a,11b,12,13,13a,13b-octadecahydro-1H-cyclopenta[a]chrysene-3a-carboxylic acid]",> 1000 nM
6,"C=C(C)[C@@H]1CC[C@]2(C(=O)OC)CC[C@]3(C)[C@H](CC[C@@H]4[C@@]5(C)CC=C(c6cccc(C(=O)O)c6)C(C)(C)[C@@H]5CC[C@]43C)[C@@H]12 [Example 1a, 3-((1R,3aS,5aR,5bR,7aR,11aS,13aR,13bR)-3a-(methoxycarbonyl)-5a,5b,8,8,11a-pentamethyl-1-(prop-1-en-2-yl)-2,3,3a,4,5,5a,5b,6,7,7a,8,11,11a,11b,12,13,13a,13b-octadecahydro-1H-cyclopenta[a]chrysen-9-yl)benzoic acid]",> 1000 nM
7,"C=C(C)[C@@H]1CC[C@]2(CO)CC[C@]3(C)[C@H](CC[C@@H]4[C@@]5(C)CC=C(c6ccc(O)c(F)c6)C(C)(C)[C@@H]5CC[C@]43C)[C@@H]12 [Example 5f, 2-fluoro-4-((1R,3aS,5aR,5bR,7aR,11aS,11bR,13aR,13bR)-3a-(hydroxymethyl)-5a,5b,8,8,11a-pentamethyl-1-(prop-1-en-2-yl)-2,3,3a,4,5,5a,5b,6,7,7a,8,11,11a,11b,12,13,13a,13b-octadecahydro-1H-cyclopenta[a]chrysen-9-yl)phenol]",< 1000 nM
8,"C=C(C)[C@@H]1CC[C@]2(C(=O)O)CC[C@]3(C)[C@H](CC[C@@H]4[C@@]5(C)CC=C(c6ccc(C(=O)O)c(F)c6)C(C)(C)[C@@H]5CC[C@]43C)[C@@H]12 [Example 4d, (1R,3aS,5aR,5bR,7aR,11aS,11bR,13aR,13bR)-9-(4-carboxy-3-fluorophenyl)-5a,5b,8,8,11a-pentamethyl-1-(prop-1-en-2-yl)-2,3,3a,4,5,5a,5b,6,7,7a,8,11,11a,11b,12,13,13a,13b-octadecahydro-1H-cyclopenta[a]chrysene-3a-carboxylic acid]",< 1000 nM
9,"C=C(C)[C@@H]1CC[C@]2(CO)CC[C@]3(C)[C@H](CC[C@@H]4[C@@]5(C)CC=C(c6ccc(C(=O)O)c(Cl)c6)C(C)(C)[C@@H]5CC[C@]43C)[C@@H]12 [Example 5a, 2-chloro-4-((1R,3aS,5aR,5bR,7aR,11aS,11bR,13bR)-3a-(hydroxymethyl)-5a,5b,8,8,11a-pentamethyl-1-(prop-1-en-2-yl)-2,3,3a,4,5,5a,5b,6,7,7a,8,11,11a,11b,12,13,13a,13b-octadecahydro-1H-cyclopenta[a]chrysen-9-yl)benzoic acid]",< 1000 nM
10,"CC1(C)CC[C@]2(C(=O)O)CC[C@]3(C)C(=CC[C@@H]4[C@@]5(C)CC=C(c6ccc(C(=O)O)cc6)C(C)(C)[C@@H]5CC[C@]43C)[C@@H]2C1 [Example 13, (4aS,6aS,6bR,8aR,12aS,12bR,14bS)-10-(4-carboxyphenyl)-2,2,6a,6b,9,9,12a-heptamethyl-1,2,3,4,4a,5,6,6a,6b,7,8,8a,9,12,12a,12b,13,14b-octadecahydropicene-4-a-carboxylic acid]",< 1000 nM
11,"C=C(C)[C@@H]1CC[C@]2(C(=O)O)CC[C@]3(C)[C@H](CC[C@@H]4[C@@]5(C)CC=C(c6ccc(-c7cnc8ccccc8c7C(=O)O)cc6)C(C)(C)[C@@H]5CC[C@]43C)[C@@H]12 [Example 4m, 3-(4-((1R,3aS,5aR,5bR,7aR,11aS,11bR,13aR,13bR)-3a-carboxy-5a,5b,8,8,11a-pentamethyl-1-(prop-1-en-2-yl)-2,3,3a,4,5,5a,5b,6,7,7a,8,11,11a,11b,12,13,13a,13b-octadecahydro-1H-cyclopenta[a]chrysen-9-yl)phenyl)quinoline-4-carboxylic acid]",> 1000 nM
12,"C=C(C)[C@@H]1CC[C@]2(C(=O)O)CC[C@]3(C)[C@H](CC[C@@H]4[C@@]5(C)CC=C(c6ccc(C(=O)NS(=O)(=O)C(C)C)cc6)C(C)(C)[C@@H]5CC[C@]43C)[C@@H]12 [Example 6a, (1R,3aS,5aR,5bR,7aR,11aS,13aR,13bR)-9-(4-(isopropylsulfonylcarbamoyl)phenyl)-5a,5b,8,8,11a-pentamethyl-1-(prop-1-en-2-yl)-2,3,3a,4,5,5a,5b,6,7,7a,8,11,11a,11b,12,13,13a,13b-octadecahydro-1H-cyclopenta[a]chrysene-3a-carboxylic acid]",< 1000 nM
13,"CC(C)[C@@H]1CC[C@]2(C(=O)O)CC[C@]3(C)[C@H](CC[C@@H]4[C@@]5(C)CC[C@H](c6ccc(C(=O)O)cc6)C(C)(C)[C@@H]5CC[C@]43C)[C@@H]12 [Example 3b, (1S,3aS,5aR,5bR,7aS,9S,11aS,11bR,13aR,13bR)-9-(4-carboxyphenyl)-1-isopropyl-5a,5b,8,8,11a-pentamethylicosahydro-1H-cyclopenta[a]chrysene-3a-carboxylic acid]",< 1000 nM
14,"C=C(C)[C@@H]1CC[C@]2(CO)CC[C@]3(C)[C@H](CC[C@@H]4[C@@]5(C)CC=C(c6ccc(C(=O)O)cc6Cl)C(C)(C)[C@@H]5CC[C@]43C)[C@@H]12 [Example 5n, 3-chloro-4-((1R,3aS,5aR,5bR,7aR,11aS,11bR,13aR,13bR)-3a-(hydroxymethyl)-5a,5b,8,8,11a-pentamethyl-1-(prop-1-en-2-yl)-2,3,3a,4,5,5a,5b,6,7,7a,8,11,11a,11b,12,13,13a,13b-octadecahydro-1H-cyclopenta[a]chrysen-9-yl)benzoic acid]",< 1000 nM
15,"C=C(C)[C@@H]1CC[C@]2(C(=O)O)CC[C@]3(C)[C@H](CC[C@@H]4[C@@]5(C)CC=C(c6ccc(C(=O)NS(C)(=O)=O)cc6)C(C)(C)[C@@H]5CC[C@]43C)[C@@H]12 [Example 6b, (1R,3aS,5aR,5bR,7aR,11aS,13aR,13bR)-5a,5b,8,8,11a-pentamethyl-9-(4-(methylsulfonylcarbamoyl)phenyl)-1-(prop-1-en-2-yl)-2,3,3a,4,5,5a,5b,6,7,7a,8,11,11a,11b,12,13,13a,13b-octadecahydro-1H-cyclopenta[a]chrysene-3a-carboxylic acid]",< 1000 nM
16,"C=C(C)[C@@H]1CC[C@]2(CO)CC[C@]3(C)[C@H](CC[C@@H]4[C@@]5(C)CC=C(c6cc(C(=O)O)no6)C(C)(C)[C@@H]5CC[C@]43C)[C@@H]12 [Example 9, 5-((1R,3aS,5aR,5bR,7aR,11aS,11bR,13aR,13bR)-3a-(hydroxymethyl)-5a,5b,8,8,11a-pentamethyl-1-(prop-1-en-2-yl)-2,3,3a,4,5,5a,5b,6,7,7a,8,11,11a,11b,12,13,13a,13b-octadecahydro-1H-cyclopenta[a]chrysen-9-yl)isoxazole-3-carboxylic acid]",< 1000 nM

# Source: patent publication US8754068B2, “Modified C-3 betulinic acid derivatives as HIV maturation inhibitors” (priority 2010, dated 2014)
